Activity calls are given as the source filed them. No cut-off for these calls is given here.
How the values were obtained:
[1] = molecular target: T1, Pancreatic triacylglycerol lipase (Homo sapiens) (UniProt P16233); assay: Inhibition of Pancreatic lipase (unknown origin) using 4-methylumbelleallyl oleate as substrate at 50 uM by microplate reader assay
T1 sequence (whole entry): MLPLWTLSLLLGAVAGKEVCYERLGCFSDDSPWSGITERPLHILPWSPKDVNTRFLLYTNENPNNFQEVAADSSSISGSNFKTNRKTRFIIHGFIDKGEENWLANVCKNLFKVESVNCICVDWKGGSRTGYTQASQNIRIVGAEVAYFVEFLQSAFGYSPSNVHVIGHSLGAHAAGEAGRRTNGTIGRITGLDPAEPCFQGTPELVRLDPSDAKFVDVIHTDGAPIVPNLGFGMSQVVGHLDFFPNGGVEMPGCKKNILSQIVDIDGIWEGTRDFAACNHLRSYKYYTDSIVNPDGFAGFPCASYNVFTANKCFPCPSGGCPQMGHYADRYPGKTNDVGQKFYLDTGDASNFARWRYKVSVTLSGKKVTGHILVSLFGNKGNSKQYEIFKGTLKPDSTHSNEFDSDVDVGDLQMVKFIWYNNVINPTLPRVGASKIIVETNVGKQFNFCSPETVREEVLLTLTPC

[2] = molecular target: T1, Pancreatic triacylglycerol lipase (Homo sapiens); assay: Inhibition of Pancreatic lipase (unknown origin) using 4-methylumbelleallyl oleate as substrate at 5 uM by microplate reader assay
HepG2 [3] = assay: Cytotoxicity against human HepG2 cells assessed as reduction in cell survival at 50 uM; type: toxicity, cell-based; details: hepg2, 50 µM
HepG2 [4] = assay: Hypolipidemic activity in sodium oleate and sodium palmitate induced human HepG2 cells assessed as decrease in intracellular lipid content at 50 uM by Oil Red O staining based assay; type: functional; parameters: scale not given: the % may be the effect or the level left
HepG2 [5] = assay: Hypolipidemic activity in sodium oleate and sodium palmitate induced human HepG2 cells assessed as decrease in intracellular lipid content at 5 uM by Oil Red O staining based assay; type: functional; parameters: scale not given: the % may be the effect or the level left
HepG2 [6] = assay: Hypolipidemic activity in sodium oleate and sodium palmitate induced human HepG2 cells assessed as decrease in intracellular lipid content at 0.2 uM by Oil Red O staining based assay; type: functional, cell-based
HepG2 [7] = assay: Hypolipidemic activity in sodium oleate and sodium palmitate induced human HepG2 cells assessed as decrease in intracellular lipid content at 0.2 to 50 uM by Oil Red O staining based assay; type: functional, cell-based; details: dose 0.2-50 µM
HepG2 [8] = assay: Hypolipidemic activity in sodium oleate and sodium palmitate induced human HepG2 cells assessed as decrease in intracellular triglyceride level at 50 uM; type: functional; parameters: scale not given: the % may be the effect or the level left
HepG2 [9] = assay: Hypolipidemic activity in sodium oleate and sodium palmitate induced human HepG2 cells assessed as decrease in intracellular triglyceride level at 10 uM; type: functional; parameters: scale not given: the % may be the effect or the level left
HepG2 [10] = assay: Hypolipidemic activity in sodium oleate and sodium palmitate induced human HepG2 cells assessed as decrease in intracellular triglyceride level at 5 uM; type: functional; parameters: scale not given: the % may be the effect or the level left
HepG2 [11] = assay: Hypolipidemic activity in sodium oleate and sodium palmitate induced human HepG2 cells assessed as decrease in intracellular triglyceride level at 1 uM; type: functional; parameters: scale not given: the % may be the effect or the level left
HepG2 [12] = assay: Hypolipidemic activity in sodium oleate and sodium palmitate induced human HepG2 cells assessed as decrease in intracellular triglyceride level at 0.2 uM; type: functional; parameters: scale not given: the % may be the effect or the level left
HepG2 [13] = assay: Anti-hyperglycemic activity in 24 hrs serum deprived human HepG2 cells assessed as alleviation in insulin resistance by measuring increase in cellular glucose consumption at 0.2 to 50 uM and measured after 24 hrs by glucose kit anlaysis; type: functional, cell-based; details: dose 0.2-50 µM
HepG2 [14] = assay: Activation of AMPK signaling pathway in human HepG2 cells assessed as increase in AMPK phosphorylation at 0.2 to 50 uM by Western blot analysis; type: cell-based; details: filed as activator, dose 0.2-50 µM
HepG2 [15] = assay: Activation of AMPK signaling pathway in human HepG2 cells assessed as increase in ACC phosphorylation at 0.2 to 50 uM by Western blot analysis; type: cell-based; details: filed as activator, dose 0.2-50 µM
Mus musculus [16] = assay: Hypolipidemic activity in 24hrs fasted tyloxapol induced NAFLD Kunming mouse model assessed as decrease in serum TC level at 50 to 200 mg/kg, IG and measured after 24 hrs by biochemical analysis relative to control; type: functional, organism-based; details: dose 50-200 mg/kg
Mus musculus [17] = assay: Hypolipidemic activity in 24hrs fasted tyloxapol induced NAFLD Kunming mouse model assessed as decrease in serum TG level at 50 to 200 mg/kg, IG and measured after 24 hrs by biochemical analysis relative to control; type: functional, organism-based; details: dose 50-200 mg/kg
Mus musculus [18] = assay: Hypolipidemic activity in 24hrs fasted tyloxapol induced NAFLD Kunming mouse model assessed as decrease in serum LDL-C level at 50 to 200 mg/kg, IG and measured after 24 hrs by biochemical analysis relative to control; type: functional, organism-based; details: dose 50-200 mg/kg
Mus musculus [19] = assay: Hypolipidemic activity in 24hrs fasted tyloxapol induced NAFLD Kunming mouse model assessed as increase in serum HDL-C level at 50 to 200 mg/kg, IG and measured after 24 hrs by biochemical analysis relative to control; type: functional, organism-based; details: dose 50-200 mg/kg
Mus musculus [20] = assay: Hypolipidemic activity in 24hrs fasted tyloxapol induced NAFLD Kunming mouse model assessed as decrease in hepatic TC level at 50 to 200 mg/kg, IG and measured after 24 hrs by biochemical analysis relative to control; type: functional, organism-based; details: dose 50-200 mg/kg
Mus musculus [21] = assay: Hypolipidemic activity in 24hrs fasted tyloxapol induced NAFLD Kunming mouse model assessed as decrease in hepatic TG level at 50 to 200 mg/kg, IG and measured after 24 hrs by biochemical analysis relative to control; type: functional, organism-based; details: dose 50-200 mg/kg
Mus musculus [22] = assay: Hypolipidemic activity in 24hrs fasted tyloxapol induced NAFLD Kunming mouse model assessed as decrease in hepatic LDL-C level at 50 to 200 mg/kg, IG and measured after 24 hrs by biochemical analysis relative to control; type: functional, organism-based; details: dose 50-200 mg/kg
Mus musculus [23] = assay: Hypolipidemic activity in 24hrs fasted tyloxapol induced NAFLD Kunming mouse model assessed as increase in hepatic HDL-C level at 50 to 200 mg/kg, IG and measured after 24 hrs by biochemical analysis relative to control; type: functional, organism-based; details: dose 50-200 mg/kg
Mus musculus [24] = assay: Reduction in liver damage in 24hrs fasted tyloxapol induced NAFLD Kunming mouse model assessed as decrease in serum ALT level at 50 to 200 mg/kg, IG and measured after 24 hrs by biochemical analysis relative to control; type: functional, organism-based; details: dose 50-200 mg/kg
Mus musculus [25] = assay: Reduction in liver damage in 24hrs fasted tyloxapol induced NAFLD Kunming mouse model assessed as decrease in serum AST level at 50 to 200 mg/kg, IG and measured after 24 hrs by biochemical analysis relative to control; type: functional, organism-based; details: dose 50-200 mg/kg
Mus musculus [26] = assay: Reduction in liver damage in 24hrs fasted tyloxapol induced NAFLD Kunming mouse model assessed as decrease in ALT level in liver at 50 to 200 mg/kg, IG and measured after 24 hrs by biochemical analysis relative to control; type: functional, organism-based; details: dose 50-200 mg/kg
Mus musculus [27] = assay: Reduction in liver damage in 24hrs fasted tyloxapol induced NAFLD Kunming mouse model assessed as decrease in AST level in liver at 50 to 200 mg/kg, IG and measured after 24 hrs by biochemical analysis relative to control; type: functional, organism-based; details: dose 50-200 mg/kg
Mus musculus [28] = assay: Reduction in oxidative stress in 24hrs fasted tyloxapol induced NAFLD Kunming mouse model assessed as increase in serum SOD level at 50 to 200 mg/kg, IG and measured after 24 hrs by biochemical analysis relative to control; type: functional, organism-based; details: dose 50-200 mg/kg
Mus musculus [29] = assay: Reduction in oxidative stress in 24hrs fasted tyloxapol induced NAFLD Kunming mouse model assessed as decrease in hepatic MPO level at 50 to 200 mg/kg, IG and measured after 24 hrs by biochemical analysis relative to control; type: functional, organism-based; details: dose 50-200 mg/kg
Mus musculus [30] = assay: Amelioration of hepatic lesion in 24hrs fasted tyloxapol induced NAFLD Kunming mouse model assessed as reduction in liver morphology alteration at 50 to 200 mg/kg, IG; type: functional, organism-based; details: dose 50-200 mg/kg
Mus musculus [31] = assay: Amelioration of hepatic lesion in 24hrs fasted tyloxapol induced NAFLD Kunming mouse model assessed as reduction in liver index at 50 to 200 mg/kg, IG; type: functional, organism-based; details: dose 50-200 mg/kg
Mus musculus [32] = assay: Amelioration of hepatic lesion in 24hrs fasted tyloxapol induced NAFLD Kunming mouse model assessed as reduction in hepatic steatosis at 50 to 200 mg/kg, IG by H and E staining based analysis; type: functional, organism-based; details: dose 50-200 mg/kg
Mus musculus [33] = assay: Amelioration of hepatic lesion in 24hrs fasted tyloxapol induced NAFLD Kunming mouse model assessed as reduction in fat deposition at 50 to 200 mg/kg, IG by H and E staining based analysis; type: functional, organism-based; details: dose 50-200 mg/kg
Mus musculus [34] = assay: Amelioration of hepatic lesion in 24hrs fasted tyloxapol induced NAFLD Kunming mouse model assessed as reduction in hepatic steatosis at 50 to 200 mg/kg, IG by Oil red O staining based analysis; type: functional, organism-based; details: dose 50-200 mg/kg
Mus musculus [35] = assay: Amelioration of hepatic lesion in 24hrs fasted tyloxapol induced NAFLD Kunming mouse model assessed as reduction in fat deposition at 50 to 200 mg/kg, IG by Oil red O staining based analysis; type: functional, organism-based; details: dose 50-200 mg/kg
[36] = Reduction in hepatic inflammation in 24hrs fasted tyloxapol induced NAFLD Kunming mouse model assessed as decrease in IL-6 level in liver at 50 mg/kg, IG and measured after 24 hrs; type: functional; parameters: scale not given: the % may be the effect or the level left
[37] = Reduction in hepatic inflammation in 24hrs fasted tyloxapol induced NAFLD Kunming mouse model assessed as decrease in IL-6 level in liver at 100 mg/kg, IG and measured after 24 hrs; type: functional; parameters: scale not given: the % may be the effect or the level left
[38] = Reduction in hepatic inflammation in 24hrs fasted tyloxapol induced NAFLD Kunming mouse model assessed as decrease in IL-6 level in liver at 200 mg/kg, IG and measured after 24 hrs; type: functional; parameters: scale not given: the % may be the effect or the level left
Mus musculus [39] = assay: Hypolipidemic activity in 24hrs fasted tyloxapol induced NAFLD Kunming mouse model assessed as decrease in spleen index at 50 to 200 mg/kg, IG relative to control; type: functional, organism-based; details: dose 50-200 mg/kg
Mus musculus [40] = assay: Hypolipidemic activity in 24hrs fasted tyloxapol induced NAFLD Kunming mouse model assessed as decrease in epididymis in white adipose tissue at 200 mg/kg, IG relative to control; type: functional, organism-based
Mus musculus [41] = assay: In vivo activation of AMPK pathway in 24hrs fasted tyloxapol induced NAFLD Kunming mouse model assessed as increase in AMPK phosphorylation in liver at 200 mg/kg, IG and measured after 24 hrs by Western blot anlaysis; type: functional, organism-based
Mus musculus [42] = assay: In vivo activation of AMPK pathway in 24hrs fasted tyloxapol induced NAFLD Kunming mouse model assessed as increase in ACC phosphorylation in liver at 200 mg/kg, IG and measured after 24 hrs by Western blot anlaysis; type: functional, organism-based

In the case of `O=C(O)CC(=O)OC[C@H]1O[C@@H](Oc2cc(O)c3c(=O)cc(-c4ccc(O)cc4)oc3c2)[C@H](O)[C@@H](O)[C@@H]1O`, the inhibition [1] is reported as 47.2%, the inhibition [2] is reported as 35% and the Activity (HepG2 [3]) is reported as “Non-Toxic”. For the same compound, the Activity (HepG2 [4]) was 67.3%, the Activity (HepG2 [5]) was 74.9% and the Activity (HepG2 [6]) was “Active”. For the same compound, the Activity (HepG2 [7]) was “Dose-Dependent Effect”, the Activity (HepG2 [8]) was 73% and the Activity (HepG2 [9]) was 55.1%. It also gave an Activity (HepG2 [10]) of 54.7%, an Activity (HepG2 [11]) of 52.2% and an Activity (HepG2 [12]) of 48.6%. The Activity (HepG2 [13]) was “Active”, the Activity (HepG2 [14]) was “Active” and the Activity (HepG2 [15]) was “Active”. For the same compound, the Activity (Mus musculus [16]) was “Active”, the Activity (Mus musculus [17]) was “Active” and the Activity (Mus musculus [18]) was “Active”. The Activity (Mus musculus [19]) was “Active”, the Activity (Mus musculus [20]) was “Active” and the Activity (Mus musculus [21]) was “Active”. For the same compound, the Activity (Mus musculus [22]) was “Active”, the Activity (Mus musculus [23]) was “Active” and the Activity (Mus musculus [24]) was “Active”. For the same compound, the Activity (Mus musculus [25]) was “Active”, the Activity (Mus musculus [26]) was “Active” and the Activity (Mus musculus [27]) was “Active”. The Activity (Mus musculus [28]) was “Active”, the Activity (Mus musculus [29]) was “Active” and the Activity (Mus musculus [30]) was “Active”. The Activity (Mus musculus [31]) was “Active”, the Activity (Mus musculus [32]) was “Active” and the Activity (Mus musculus [33]) was “Active”. For the same compound, the Activity (Mus musculus [34]) was “Active”, the Activity (Mus musculus [35]) was “Active” and the Activity [36] was 23.68%. For the same compound, the Activity [37] was 22.44%, the Activity [38] was 18.03% and the Activity (Mus musculus [39]) was “Active”. For the same compound, the Activity (Mus musculus [40]) was “Active”, the Activity (Mus musculus [41]) was “Active” and the Activity (Mus musculus [42]) was “Active”.

For `O=C(O)CC(=O)OC[C@H]1O[C@@H](Oc2cc(O)c3c(=O)cc(-c4ccc(O)c(O)c4)oc3c2)[C@H](O)[C@@H](O)[C@@H]1O`, the inhibition [1] was 65.8%, the Activity (HepG2 [3]) was “Non-Toxic” and the Activity (HepG2 [4]) was 57.1%. It also gave an Activity (HepG2 [5]) of 61.5%.
